One experiment has as its target T1, HCV NS3 helicase (Hepatitis C virus genotype 1b, UniProt P26663).
T1 construct: full-length NS3 (1-631), purified at Array BioPharma
Briefly: HCV Helicase Prompt FRET Assay (Example A). The class given is biochemical. The conditions noted are these: HCV NS3 helicase; tables do not say whether Example A or Example B assay; read-out: IC50 Activity. The method, then:
Test compounds were diluted to 2.5 mM by adding 6 uL of a 10 mM solution of the compound to 18 uL of DMSO in a 384-well Costar polypropylene plate. Serial dilutions (2.5×) were performed in the plate using DMSO as the diluent. 1 ul of solution was transferred from each well to a new 384-well Costar polypropylene plate.
A 2× mixture was prepared containing 100 nM helicase substrate, 500 nM helicase capture strand (CS), and 600 μM ATP by diluting stock solutions with assay buffer consisting of 25 mM MOPS, pH 7.0, and 1.5 mM MgCl2, 0.005% (v/v) Triton X-100. Stock helicase substrate was prepared by annealing a FAM-labeled oligonucleotide to a BHQ-1 labeled oligonucleotide, which were both custom synthesized and HPLC-purified at Biosearch Technologies. The FAM-labeled and BHQ-labeled oligonucleotide had the following sequences:
The helicase capture strand was custom synthesized and purified at Integrated DNA Technologies. The helicase capture strand had the following sequence:
The ATP solution was prepared in MilliQ water, pH adjusted to approximately 7 with NaOH. ATP powder was obtained from Sigma (A-7699). The concentration was determined via A260 (ext. coeff=15,400 M^−1cm^−1).
11.5 μL of assay buffer was added to all wells of the plate containing luL of test compound. 5 μL of the Compound/assay buffer mixture was added to a black polystyrene 384-well Proxiplate. A 4× Enzyme solution was prepared by diluting enzyme stock containing full-length NS3 (1-631), purified at Array BioPharma, with assay buffer. 5 μL of the 4× Enzyme solution was added to the Proxiplate and incubated for 5 minutes (for control wells lacking enzyme, assay buffer was used instead). 10 μL of 2× substrate/CS/ATP mixture was then added to all wells of Proxiplate. The final assay conditions included 50 nM Substrate, 250 nM Capture Strand, 300 μM ATP, 5 or 6 nM Enzyme, and 2% (v/v) DMSO. The reaction proceeded for 70 cycles (˜30 min.) on an Envision at room temperature. The plate was read using the Envision (top mirror=FITC; Excitation filter=FITC 485; Emission filter=FITC 535). The fluorescence intensity was recorded for a total of 30 minutes. The initial rates of the reactions was calculated and used to calculate IC50 values. The IC50 curve fitting was performed using either a 4-parameter or 5-parameter logistic equation.
T1 sequence (P26663 1027-1657): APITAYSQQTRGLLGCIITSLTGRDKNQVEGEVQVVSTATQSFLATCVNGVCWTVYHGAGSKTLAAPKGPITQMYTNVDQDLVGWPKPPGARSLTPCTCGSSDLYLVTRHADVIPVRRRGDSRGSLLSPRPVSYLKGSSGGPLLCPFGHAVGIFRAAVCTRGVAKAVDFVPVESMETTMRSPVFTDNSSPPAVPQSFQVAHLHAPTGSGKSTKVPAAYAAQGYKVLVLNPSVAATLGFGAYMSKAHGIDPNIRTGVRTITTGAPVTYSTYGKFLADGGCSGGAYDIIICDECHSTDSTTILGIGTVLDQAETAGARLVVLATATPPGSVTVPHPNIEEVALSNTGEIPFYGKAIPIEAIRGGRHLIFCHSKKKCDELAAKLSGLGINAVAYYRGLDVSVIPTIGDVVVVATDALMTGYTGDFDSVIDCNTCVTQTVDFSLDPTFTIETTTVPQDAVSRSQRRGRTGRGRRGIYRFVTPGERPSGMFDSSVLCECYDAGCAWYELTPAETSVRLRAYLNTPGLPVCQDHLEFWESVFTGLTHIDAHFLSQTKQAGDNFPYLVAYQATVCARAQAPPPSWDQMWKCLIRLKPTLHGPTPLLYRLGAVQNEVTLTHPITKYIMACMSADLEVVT
The term IC50 denotes the concentration that inhibits the measured activity by half. As to `COC(=O)C(C)c1cn(-c2ccc([N+](=O)[O-])cc2C)c2ccc(Br)cc12` (stereo not shown) [Example 390], the IC50 was more than 50 µM.

On to `O=C(O)Cc1c(C(=O)c2cccc(-c3ccc(Cl)c(Cl)c3)c2)oc2ccccc12` [Example 243], for which the IC50 is less than 10 µM.

In the case of `O=C(O)Cc1cn(Cc2cccc(OCc3ccccc3)c2)c2ccc(Br)cc12` [Example 101], the IC50 is less than 10 µM. On the same count and under the same terms, the value for `CC(C)c1ccc(Cn2c(C(=O)Nc3cccnc3)c(CC(=O)O)c3ccccc32)cc1` [Example 463] was 10 to 50 µM; that for `CC(=O)c1c(CC(=O)O)c2ccccc2n1-c1ccc(N(C)Cc2ccccc2)cc1` [Example 737] was 10 to 50 µM. Same read-out and setting: the value for `CC(C)c1ccc(Cn2cc(CC(=O)O)c3cc(Br)ccc32)cc1` [Example 102] was 10 to 50 µM; that for `Cc1cc([N+](=O)[O-])ccc1C(C(=O)O)C1CN(c2ccc([N+](=O)[O-])cc2C)c2ccc(Br)cc21` (stereo not shown) [Example 404] was 10 to 50 µM; that for `CSc1ccc2c(c1)c(CC(N)=O)cn2Cc1cccc(OCc2ccccc2)c1` [Example 201] was less than 10 µM. On the same count and under the same terms, the value for `CC(C)c1ccc(Cn2c(C(=O)N3CCNC(=O)C3)c(CC(=O)O)c3cc(Br)ccc32)cc1` [Example 429] was more than 50 µM; that for `O=C(O)Cc1c(Cc2cccc(-c3ccc(Cl)cc3Cl)c2)oc2ccccc12` [Example 308] was less than 10 µM. Consider `CC(C)c1cccc(-c2cccc(C(=O)c3[nH]c4ccccc4c3CC(=O)O)c2)c1` [Example 227], for which the IC50 is less than 10 µM. Still for that read-out and setting: the value for `COC(=O)Cc1cn(-c2ccc([N+](=O)[O-])cc2C)c2ccc(Br)cc12` [Example 378] was more than 50 µM; that for `Nc1cc(-c2ccc3c(CC(=O)O)cn(Cc4csc5ccc(Cl)cc45)c3c2)ccn1` [Example 747] was 10 to 50 µM; that for `CCN(Cc1ccccc1)c1ccc(-n2cc(CC(=O)OC)c3ccccc32)cc1` [Example 165] was 10 to 50 µM.

As to `O=C(O)Cc1cn(Cc2cccc(Oc3cccc(C(F)(F)F)c3)c2)c2ccccc12` [Example 482], the IC50 is less than 10 µM.

Regarding `Cc1ccc(-c2ccc(C(=O)c3[nH]c4ccccc4c3CC(=O)O)cc2)cc1` [Example 256], the IC50 fell in the range of 10 to 50 µM. Same read-out and setting: the value for `O=C(O)Cc1cn(Cc2ccc(Oc3ccc(F)cc3)cc2)c2ccccc12` [Example 495] was less than 10 µM; that for `CN(c1cccc(Cn2cc(CC(=O)O)c3ccccc32)c1)c1cccc(Cl)c1Cl` [Example 537] was less than 10 µM. Same read-out and setting: to `O=C(O)Cc1c(C(=O)c2cccc(-c3cccc(OC(F)(F)F)c3)c2)[nH]c2ccccc12` [Example 237] belongs 10 to 50 µM; to `CN(Cc1ccccc1F)c1ccc(-n2cc(CC(=O)O)c3ccccc32)cc1` [Example 182], less than 10 µM. Same read-out and setting: to `COc1ccc(-c2cccc(C(=O)c3[nH]c4ccccc4c3CC(=O)O)c2)cc1` [Example 236] belongs 10 to 50 µM; to `O=C(O)Cc1cn(CCCc2ccccc2)c2ccc(Br)cc12` [Example 104], 10 to 50 µM. `CN(C)C(=O)c1cccc(-c2cccc(Cn3cc(CC(=O)O)c4cc(OCc5ccccc5)ccc43)c2)c1` [Example 117]: the IC50 was 10 to 50 µM.

Take `O=C(O)Cc1cn(Cc2csc3ccc(Cl)cc23)c2cc(N3CCCC(O)C3)ccc12` (stereo not shown) [Example 746]: the IC50 was 10 to 50 µM. Still for that read-out and setting: to `COC(=O)C(Cc1ccccc1)c1cn(Cc2ccc(C(C)C)cc2)c2ccc(Br)cc12` (stereo not shown) [Example 409] belongs more than 50 µM; to `CN(c1cccc(Cn2cc(CC(=O)O)c3ccccc32)c1)c1cccc(F)c1F` [Example 533], less than 10 µM. In the case of `CCOc1ccc2scc(Cn3cc(CC(=O)O)c4ccccc43)c2c1` [Example 142], the IC50 lay within 10 to 50 µM. On the same count and under the same terms, to `CN(c1cccc(Cn2cc(CC(=O)O)c3ccccc32)c1)c1ccccc1C(F)(F)F` [Example 529] belongs less than 10 µM; to `CN(c1ccc(Cl)cc1)c1cccc(Cn2cc(CC(=O)O)c3ccccc32)c1` [Example 525], less than 10 µM.

The experiment is the same for the next values; noted with them: Table 21, compounds made using Scheme 28; read-out: IC50 Activity.
Turning to `CN(c1ccc(Cn2cc(CC(=O)O)c3ccccc32)cc1)c1ccc(C(F)(F)F)cc1C(F)(F)F` [Example 580], the IC50 was less than 10 µM. Turning to `CN(c1ccc(Cn2cc(CC(=O)O)c3ccccc32)cc1)c1cc(C(F)(F)F)ccc1C(F)(F)F` [Example 581], the concentration for half-maximal inhibition (IC50) was less than 10 µM. With `CN(c1ccc(F)cc1)c1ccc(Cn2cc(CC(=O)O)c3ccccc32)cc1` [Example 558], the IC50 fell in the range of 10 to 50 µM. Still for that read-out and setting: to `CN(c1ccc(Cn2cc(CC(=O)O)c3ccccc32)cc1)c1cccc(F)c1` [Example 557] belongs less than 10 µM.

The same experiment, now with this note: Table 25, compounds made using Scheme 32; read-out: IC50 Activity.
In the case of `CCOC(=O)Cc1cn(Cc2ccc(Oc3ccc(C(F)(F)F)cc3)cc2)c2cc(-c3cc(N)cc(N)c3)ccc12` [Example 608], the IC50 fell in the range of 10 to 50 µM.

Still in this experiment, the particulars now being: Table 27, compounds made using Scheme 34.
For the compound `CCOC(=O)Cc1cn(Cc2c(C)sc3ccc(Cl)cc23)c2cc(-c3cc(N)cc(N)c3)ccc12` [Compound 617], the “IC50 Activity” value is “B or C”.

The same experiment, now with this note: Table 31, compounds made using Schemes 38-45; read-out: IC50 Activity.
Take `CNc1cc(N)cc(-c2ccc3c(CC(=O)O)cn(Cc4csc5ccc(Cl)cc45)c3c2)c1` [Example 647]: the IC50 was less than 10 µM. In the case of `Nc1ccnc(-c2ccc3c(CC(=O)O)cn(Cc4csc5ccc(Cl)cc45)c3c2)n1` [Example 630], the IC50 was less than 10 µM.

For `Nn1c(=O)[nH]cc(-c2ccc3c(CC(=O)O)cn(Cc4csc5ccc(Cl)cc45)c3c2)c1=O` [Example 652], the IC50 fell in the range of 10 to 50 µM. Same read-out and setting: to `COC(=O)c1ccc(N)cc1-c1ccc2c(CC(=O)O)cn(Cc3csc4ccc(Cl)cc34)c2c1` [Example 642] belongs less than 10 µM.

As for `Nc1cc(N)nc(-c2ccc3c(CC(=O)O)cn(Cc4csc5ccc(Cl)cc45)c3c2)n1` [Example 635], the IC50 fell in the range of 10 to 50 µM.

Staying with this experiment, now noted: Table 32, compounds made using Schemes 46-49; read-out: IC50 Activity.
As for `NC(=O)c1nc(N)sc1-c1ccc2c(CC(=O)O)cn(Cc3csc4ccc(Cl)cc34)c2c1` [Example 654], the IC50 is less than 10 µM. For `CC(C)(C)OC(=O)Nc1nnc(-c2ccc3c(CC(=O)O)cn(Cc4csc5ccc(Cl)cc45)c3c2)s1` [Example 658], the IC50 is less than 10 µM.

Staying with this experiment, now noted: Table 34, compounds made using Schemes 51-52; read-out: IC50 Activity.
Turning to `O=C(O)Cc1cn(Cc2csc3ccccc23)c2ccc(Br)cc12` [Example 678], the IC50 lay within 10 to 50 µM. The same measure, in the same setting: the value for `CC(C)c1ccc(CC(C(=O)O)c2cn(Cc3ccc(C(C)C)cc3)c3ccc(Br)cc23)cc1` (stereo not shown) [Example 685] was less than 10 µM; that for `Cn1cc(CC(=O)O)c2ccc(-c3cc(N)cc(N)c3)cc21` [Example 675] was more than 50 µM. Turning to `Cc1cc([N+](=O)[O-])ccc1-n1cc(C(NC(=O)C2CCN(C(=O)OC(C)(C)C)CC2)C(=O)O)c2ccccc21` (stereo not shown) [Example 673], the IC50 lay in the range of 10 to 50 µM.

For `Nc1cc(N)cc(-c2ccc3c(CC(=O)NOCc4ccccc4)cn(Cc4csc5ccc(Cl)cc45)c3c2)c1` [Example 680], the half-inhibitory concentration (IC50) was less than 10 µM.

The experiment is the same for the next values; noted with them: Table 36, compounds made using Scheme 54; read-out: IC50 Activity.
Turning to `O=C(O)Cc1cn(Cc2csc3cccc(Cl)c23)c2cc(Br)ccc12` [Example 784], the IC50 is more than 50 µM. Still for that read-out and setting: the value for `CCOC(=O)Cc1cn(Cc2c(-c3ccccc3)sc3ccccc23)c2cc(-c3cc([N+](=O)[O-])cc([N+](=O)[O-])c3)ccc12` [Example 711] was 10 to 50 µM; that for `CCOC(=O)Cc1cn(Cc2csc3ccc(OC(F)(F)F)cc23)c2cc(-c3cc(N)cc(N)c3)ccc12` [Example 718] was 10 to 50 µM.

The experiment is the same for the next values; noted with them: Table 37, compounds made using Scheme 55; read-out: IC50 Activity.
On to `Nc1cccc(-c2ccc3c(CC(=O)O)cn(Cc4csc5ccc(Cl)cc45)c3c2)c1` [Example 765], for which the IC50 is less than 10 µM.

The experiment is the same for the next values; noted with them: Table 38, compounds made using Scheme 56, Scheme 57 and Scheme 61; read-out: IC50 Activity.
For `CCN(C)c1cc(Cl)cc2c(Cn3cc(CC(=O)O)c4ccc(-c5cc(N)cc(N)c5)cc43)csc12` [Example 732], the IC50 was less than 10 µM.

These data come from patent US20090047246A1, “NOVEL INHIBITORS OF HEPATITIS C VIRUS REPLICATION” (InterMune, Inc., priority 2007, published 2009).
